Patent US8975415B2, “Chromane compounds” (CoMentis, Inc., priority 2012, dated 2015)

Legend:
BACE1 [1] = biological target: T1, BACE1 (Homo sapiens (Human), UniProt P56817); assay: Measurement of Aβ production inhibition in cell (SK-N-BE(2) neuroblastoma cells, Aβ40 ELISA); conditions: SK-N-BE(2) cells, 6 hours
Target sequence in this assay (P56817 46-501): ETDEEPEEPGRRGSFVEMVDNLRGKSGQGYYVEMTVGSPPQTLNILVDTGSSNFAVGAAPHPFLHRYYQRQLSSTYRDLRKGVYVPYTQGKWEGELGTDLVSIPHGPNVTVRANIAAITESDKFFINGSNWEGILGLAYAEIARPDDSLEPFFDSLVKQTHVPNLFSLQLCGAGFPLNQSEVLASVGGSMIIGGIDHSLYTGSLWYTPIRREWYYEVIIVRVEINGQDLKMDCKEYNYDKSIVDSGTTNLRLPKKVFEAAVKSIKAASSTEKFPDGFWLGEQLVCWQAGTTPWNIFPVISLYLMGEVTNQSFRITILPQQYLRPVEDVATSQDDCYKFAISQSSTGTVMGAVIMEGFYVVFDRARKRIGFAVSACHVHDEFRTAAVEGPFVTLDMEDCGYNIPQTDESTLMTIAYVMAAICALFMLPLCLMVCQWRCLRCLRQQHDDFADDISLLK
Procedure: The potency of compounds against BACE1 activity was determined in a cellular assay of Aβ production. […] Test compounds were dissolved in dimethyl sulfoxide and diluted with dimethyl sulfoxide and put into RPMI1640/5% FBS/penicillin-streptomycin media (final dimethyl sulfoxide concentration is 0.5%). […] CellTiter-Glo Substrate was dissolved into CellTiter-Glo Buffer and added to the plates in 95 μL/well. After shaking the plates for 2 minutes, the whole sample was transferred into a white 96-well plate and luminescence was measured for ATP quantification as the cell viability. Aβ concentration measured by ELISA was normalized by the viability of the corresponding cells.

BACE1 [2] = biological target: T1, BACE1; assay: Measurement of BACE1 inhibition by fluorescence resonance energy transfer (FRET), MCA substrate; conditions: FRET; for IC50: read-out: Test Example 1 IC50, MCA-SEVNLDAEFK(DNP)-NH2 substrate, pH 4.4; for Ki: read-out: Test Example 1 BACE1 MCA Ki, MCA substrate
Target sequence in this assay (P56817 75-416): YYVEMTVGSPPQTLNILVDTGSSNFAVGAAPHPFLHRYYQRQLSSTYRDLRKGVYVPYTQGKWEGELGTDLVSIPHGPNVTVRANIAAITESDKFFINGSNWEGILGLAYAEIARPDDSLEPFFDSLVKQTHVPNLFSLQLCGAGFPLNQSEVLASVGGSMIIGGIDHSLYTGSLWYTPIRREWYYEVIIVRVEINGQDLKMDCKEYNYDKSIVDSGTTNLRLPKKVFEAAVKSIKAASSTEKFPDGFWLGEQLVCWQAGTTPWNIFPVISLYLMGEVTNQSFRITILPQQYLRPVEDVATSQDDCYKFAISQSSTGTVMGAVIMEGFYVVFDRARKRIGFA

[3] = Test Example 3 IC50, Aβ40 production
[4] = read-out: Test Example 3 IC50, Aβ40 production

SMILES	IC50 (BACE1 [1]; [3])	IC50 (BACE1 [2])	IC50 (BACE1 [1]; [4])	Ki (BACE1 [2])
CC1(C)Oc2ccc(-c3cccnc3F)cc2C2(COC(N)=N2)C12COC2 (stereo not shown) [RP 82]	36 nM	348 nM	–	–
COc1cc(-c2ccc3c(c2)C2(COC(N)=N2)C2(COC2)C2(CCC2)O3)c(F)cn1 (stereo not shown) [RP 122]	1100 nM	2740 nM	–	–
NC1=NC2(CO1)c1cc(C3=CCCCC3)ccc1OC1(CCC1)C21COC1 (stereo not shown) [RP 135]	1800 nM	3270 nM	–	–
CC1(C)Oc2ccc(-c3cccc(C4CC4)c3)cc2C2(COC(N)=N2)C12COC2 (stereo not shown) [RP 140]	410 nM	389 nM	–	–
NC1=NC2(CO1)c1cc(-c3cncc(OCC(F)(F)C(F)F)c3)ccc1OCC21CC1 (stereo not shown) [RP 64]	2300 nM	6120 nM	–	–
COCC#Cc1cncc(-c2ccc3c(c2)C2(COC(N)=N2)C2(COC2)CO3)c1 (stereo not shown) [RP 19, 6′-[5-(3-methoxyprop-1-yn-1-yl)pyridin-3-yl]dispiro[1,3-oxazole-4,4′-chromene-3′,3″-oxetan]-2-amine]	430 nM	2310 nM	–	–
CC1(C)Oc2ccc(-c3cc(F)cc(F)c3)cc2C2(COC(N)=N2)C12COC2 (stereo not shown) [RP 147]	170 nM	621 nM	–	–
CC1(C)Oc2ccc(-c3cc(F)ncc3Cl)cc2C2(COC(N)=N2)C12COC2 (stereo not shown) [RP 158]	370 nM	930 nM	–	–
CCOc1cccc(-c2ccc3c(c2)C2(COC(N)=N2)C2(COC2)C(C)(C)O3)c1 (stereo not shown) [RP 144]	460 nM	879 nM	–	–
CCC(CC)Cc1ccc2c(c1)C1(COC(N)=N1)C1(COC1)C1(CCC1)O2 (stereo not shown) [RP 47]	1400 nM	2330 nM	–	–
CC#Cc1cncc(-c2ccc3c(c2)C2(COC(N)=N2)C2(CCC2)CO3)c1 (stereo not shown) [RP 113]	470 nM	1110 nM	–	–
NC1=NC2(c3cc(-c4cncnc4)ccc3OCC23CC3)C(F)(F)CO1 (stereo not shown) [RP 206]	> 30000 nM	4910 nM	–	–
CC1(C)Oc2ccc(-c3cncnc3)cc2C2(COC(N)=N2)C12COC2 (stereo not shown) [RP 69]	40 nM	397 nM	–	–
CCCC1Oc2ccc(-c3cncnc3)cc2C2(COC(N)=N2)C12COC2 (stereo not shown) [RP 94]	380 nM	862 nM	–	–
CC1(C)Oc2ccc(NC(=O)c3ncc(Cl)cc3F)cc2C2(COC(N)=N2)C12COC2 (stereo not shown) [Example 30]	–	–	2.3 nM	51.5 nM
NC1=NC2(CO1)c1cc(Nc3ncccc3Cl)ccc1OC1(CCC1)C21COC1 (stereo not shown) [RP 44]	98 nM	602 nM	–	–
CC#Cc1cncc(-c2ccc3c(c2)C2(COC(N)=N2)C2(COC2)C(CC2CC2)O3)c1 (stereo not shown) [RP 205]	22 nM	126 nM	–	82.5 nM
NC1=NC2(CO1)c1cc(-c3cncc(OCC(F)(F)F)c3)ccc1OCC21CC1 (stereo not shown) [RP 58]	180 nM	1480 nM	–	–
COc1cncc(-c2ccc3c(c2)[C@@]2(COC(N)=N2)C2(COC2)[C@@H](C)O3)c1 (racemic) [RP 81]	510 nM	1890 nM	–	–
CC1(C)Oc2ccc(-c3cccnc3Cl)cc2C2(COC(N)=N2)C12COC2 (stereo not shown) [RP 156]	180 nM	2610 nM	–	–
CC1(C)Oc2ccc(-c3cc(F)cc(Cl)c3)cc2C2(COC(N)=N2)C12COC2 (stereo not shown) [RP 146, 6′-(3-chloro-5-fluorophenyl)-2′,2′-dimethyldispiro[1,3-oxazole-4,4′-chromene-3′,3″-oxetan]-2-amine]	210 nM	226 nM	–	188 nM
NC1=NC2(CO1)c1cc(-c3cncc(Cl)c3)ccc1OCC21CC1 (stereo not shown) [RP 107]	460 nM	1060 nM	–	–
CC1(C)Oc2ccc(-c3cncnc3)cc2C2(COC(N)=N2)C12COC2 (single isomer, unassigned) [RP 51b, 2′,2′-dimethyl-6′-(pyrimidin-5-yl)dispiro[1,3-oxazole-4,4′-chromene-3′,3″-oxetan]-2-amine]	72 nM	172 nM	–	137 nM
CCC1Oc2ccc(-c3cncnc3)cc2C2(COC(N)=N2)C12COC2 (stereo not shown) [RP 87]	430 nM	1550 nM	–	–
N#Cc1cccc(-c2ccc3c(c2)C2(COC(N)=N2)C2(COC2)C2(CCC2)O3)c1 (stereo not shown) [RP 128]	1500 nM	1680 nM	–	–
NC1=NC2(CO1)c1cc(NC(=O)c3ncc(Br)cn3)ccc1OCC21CC1 (stereo not shown) [RP 189]	43 nM	661 nM	–	623 nM

SMILES	IC50 (BACE1 [1]; [3])	IC50 (BACE1 [2])	IC50 (BACE1 [1]; [4])	Ki (BACE1 [2])
COc1cccc(-c2ccc3c(c2)C2(COC(N)=N2)C2(COC2)C2(CCC2)O3)c1 (stereo not shown) [RP 126]	1200 nM	696 nM	–	–
NC1=NC2(CO1)c1cc(-c3cncc(OC(F)F)c3)ccc1OCC21CC1 (stereo not shown) [RP 60]	160 nM	1480 nM	–	–
CCOc1cc(F)cc(-c2ccc3c(c2)C2(COC(N)=N2)C2(COC2)C2(CCC2)O3)c1 (stereo not shown) [RP 133]	2800 nM	1670 nM	–	–
NC1=NC2(CS1)c1cc(Br)ccc1OCC21COC1 (stereo not shown) [RP 41, 6′-bromodispiro[oxetane-3,3′-chromene-4′,4″-[1,3]thiazol]-2″-amine]	> 30000 nM	24800 nM	–	–
NC1=NC2(CO1)c1cc(-c3cccc(F)c3F)ccc1OC1(CCC1)C21COC1 (stereo not shown) [RP 138]	1500 nM	1670 nM	–	–
CC1(C)Oc2ccc(NC(=O)c3ccc(F)cn3)cc2C2(COC(N)=N2)C12COC2 (stereo not shown) [Example 28]	–	–	19 nM	117 nM
COc1cncc(-c2ccc3c(c2)C2(COC(N)=N2)C2(COC2)C2(CCC2)O3)c1 (stereo not shown) [RP 72]	68 nM	817 nM	–	–
CCOc1cccc(-c2ccc3c(c2)C2(COC(N)=N2)C2(COC2)C2(CCC2)O3)c1 (stereo not shown) [RP 131]	3200 nM	2020 nM	–	–
Cc1cc(-c2ccc3c(c2)C2(COC(N)=N2)C2(COC2)C(C)(C)O3)cnc1F (stereo not shown) [RP 157]	660 nM	2800 nM	–	–
CC(C)CC1Oc2ccc(-c3cncnc3)cc2C2(COC(N)=N2)C12COC2 (stereo not shown) [RP 93]	370 nM	629 nM	–	–
COc1cnc(C(=O)Nc2ccc3c(c2)C2(COC(N)=N2)C2(CC2)CO3)cn1 (stereo not shown) [RP 193]	81 nM	1040 nM	–	–
CC1(C)Oc2ccc(-c3cc(Cl)cnc3Cl)cc2C2(COC(N)=N2)C12COC2 (stereo not shown) [RP 152]	110 nM	688 nM	–	–
CC#Cc1cncc(-c2ccc3c(c2)C2(COC(N)=N2)C2(COC2)C(CCC(F)(F)F)O3)c1 (stereo not shown) [RP 96]	22 nM	126 nM	–	868 nM
COc1cccnc1Nc1ccc2c(c1)C1(COC(N)=N1)C1(COC1)CO2 (stereo not shown) [RP 26]	69 nM	3750 nM	–	–
CC#Cc1cncc(-c2cc3c(cc2F)OCC2(CC2)C32COC(N)=N2)c1 (stereo not shown) [RP 112]	660 nM	400 nM	–	–
C#Cc1cncc(-c2ccc3c(c2)C2(COC(N)=N2)C2(COC2)CO3)c1 (stereo not shown) [RP 23]	900 nM	519 nM	–	–
Cc1cnc(Cl)c(-c2ccc3c(c2)C2(COC(N)=N2)C2(COC2)C(C)(C)O3)c1 (stereo not shown) [RP 151]	280 nM	1360 nM	–	–
CCOc1cc(-c2ccc3c(c2)C2(COC(N)=N2)C2(COC2)C2(CCC2)O3)cc(C(F)(F)F)c1 (stereo not shown) [RP 129]	7300 nM	2210 nM	–	–
COc1cccc(-c2ccc3c(c2)C2(COC(N)=N2)C2(COC2)C2(CCC2)O3)c1F (stereo not shown) [RP 137]	830 nM	773 nM	–	–
NC1=NC2(CO1)c1cc(-c3cncc(F)c3)ccc1OC1(CCC1)C21COC1 (stereo not shown) [RP 70]	960 nM	1750 nM	–	–
N#Cc1ccc(C(=O)Nc2ccc3c(c2)C2(COC(N)=N2)C2(CC2)CO3)nc1 (stereo not shown) [RP 196]	53 nM	380 nM	–	342 nM
N#Cc1ncccc1-c1ccc2c(c1)C1(COC(N)=N1)C1(COC1)C1(CCC1)O2 (stereo not shown) [RP 115, 3-(2″-aminotrispiro[cyclobutane-1,2′-chromene-4′,4″-[1,3]oxazole-3′,3′″-oxetan]-6′-yl)pyridine-2-carbonitrile]	1100 nM	3310 nM	–	–
NC1=NC2(CO1)c1cc(NC(=O)c3ccc(F)cn3)ccc1OCC21CC1 (stereo not shown) [RP 31, N-(2″-aminodispiro[cyclopropane-1,3′-chromene-4′,4″-[1,3]oxazol]-6′-yl)-5-fluoropyridine-2-carboxamide]	61 nM	1060 nM	–	1030 nM
CC1(C)Oc2ccc(-c3cc(F)cnc3Cl)cc2C2(COC(N)=N2)C12COC2 (stereo not shown) [RP 153]	130 nM	1130 nM	–	–
NC1=NC2(CO1)c1cc(-c3cc(F)ccc3F)ccc1OC1(CCC1)C21COC1 (stereo not shown) [RP 130]	1700 nM	1870 nM	–	–
